From the supplement of paper PMC11208160

Assay: recombinant UMI read abundance after kanamycin selection (control-corrected) (log10(CPM+1)); higher = more efficient recombination; extreme values may be limits of the assay; sequences stand for … in AGTGCAGAGAAAATCGGCCAGTTTTCTCTGCCTGCAGTCCGCATGCCGTGGGACCCCTTGGGTTCTAACCTGTTGCCTAGATTTATGCAGCGGACTGCCTTTCTCCCAAAGTGATAAACCGG…AGGTTGGTTTCACT; site = the 11-nt donor
Summary of the method: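 Sequenced counts of recombinant UMIs were turned into CPM, averaged across replicates and scaled with control-derived factors. The reported figure is log10(CPM+1). Those UMIs, each 12 nt long, tagged donor and donor-binding-loop pairs on a plasmid with a promoterless kanamycin gene, screened as a pool in Escherichia coli with IPTG (0.07 mM) plus kanamycin or without selection.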
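Note: IS621 bridge recombinase in Escherichia coli cells against a fixed T5 target plasmid.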

Row | Sequence | recombinant UMI read abundance (log10)
1 | GCCTAAACATGGACCGGTTTTCCCGGTAATCCGTATTTGGT (site GCCTAAACTAC) | 1.07
2 | GCCTAATCATGGACCGGTTTTCCCGGTAATCCGTATTTGGC (site GCCTAATCTGC) | 0.963
3 | GCCTATCCATGGACCGGTTTTCCCGGTAATCCGTATTTGAC (site GCCTATCCTGT) | 0
4 | GCCTCGCCATGGACCGGTTTTCCCGGTAATCCGTATTTGGT (site GCCTCGCCTAC) | 0
5 | GCCTCTACATGGACCGGTTTTCCCGGTAATCCGTATTTGCC (site GCCTCTACTGG) | 1.37
6 | GCCTGGCCATGGACCGGTTTTCCCGGTAATCCGTATTTGCT (site GCCTGGCCTAG) | 0
7 | GCCTGTGCATGGACCGGTTTTCCCGGTAATCCGTATTTGAC (site GCCTGTGCTGT) | 0.472
8 | GCGAAAACATGGACCGGTTTTCCCGGTAATCCGTATTTGCA (site GCGAAAACTAG) | 0
9 | GCGAAAACATGGACCGGTTTTCCCGGTAATCCGTATTTGCA (site GCGAAAACTCG) | 1.4
10 | GCGAAAACATGGACCGGTTTTCCCGGTAATCCGTATTTGCA (site GCGAAAACTGG) | 0
11 | GCGAAAACATGGACCGGTTTTCCCGGTAATCCGTATTTGCA (site GCGAAAACTTG) | 0.929
12 | GCGAAATCATGGACCGGTTTTCCCGGTAATCCGTATTTGCT (site GCGAAAACTAG) | 0
13 | GCGAAATCATGGACCGGTTTTCCCGGTAATCCGTATTTGCT (site GCGAAACCTAG) | 0
14 | GCGAAATCATGGACCGGTTTTCCCGGTAATCCGTATTTGCT (site GCGAAAGCTAG) | 0
15 | GCGAAATCATGGACCGGTTTTCCCGGTAATCCGTATTTGCT (site GCGAAATCTAG) | 1.62
16 | GCGAACCCATGGACCGGTTTTCCCGGTAATCCGTATTTGAT (site GCGAACCCTAT) | 0.903
17 | GCGAACCCATGGACCGGTTTTCCCGGTAATCCGTATTTGGG (site GCGAAACCTCC) | 0.013
18 | GCGAACCCATGGACCGGTTTTCCCGGTAATCCGTATTTGGG (site GCGAACCCTCC) | 0.0373
19 | GCGAACCCATGGACCGGTTTTCCCGGTAATCCGTATTTGGG (site GCGAAGCCTCC) | 0.00885
20 | GCGAACCCATGGACCGGTTTTCCCGGTAATCCGTATTTGGG (site GCGAATCCTCC) | 0.0113
21 | GCGAAGACATGGACCGGTTTTCCCGGTAATCCGTATTTGCT (site GCGAAAACTAG) | 1.01
22 | GCGAAGACATGGACCGGTTTTCCCGGTAATCCGTATTTGCT (site GCGAACACTAG) | 0.298
23 | GCGAAGACATGGACCGGTTTTCCCGGTAATCCGTATTTGCT (site GCGAAGACTAG) | 1.92
24 | GCGAAGACATGGACCGGTTTTCCCGGTAATCCGTATTTGCT (site GCGAATACTAG) | 0
25 | GCGAAGACATGGACCGGTTTTCCCGGTAATCCGTATTTGGG (site GCGAAGACTCC) | 0.479

Row | Sequence | recombinant UMI read abundance (log10)
26 | GCGAAGACATGGACCGGTTTTCCCGGTAATCCGTATTTGGG (site GCGAAGCCTCC) | 0
27 | GCGAAGACATGGACCGGTTTTCCCGGTAATCCGTATTTGGG (site GCGAAGGCTCC) | 0.287
28 | GCGAAGACATGGACCGGTTTTCCCGGTAATCCGTATTTGGG (site GCGAAGTCTCC) | 0.439
29 | GCGAAGCCATGGACCGGTTTTCCCGGTAATCCGTATTTGGA (site GCGAAGCCTAC) | 0.00917
30 | GCGAAGCCATGGACCGGTTTTCCCGGTAATCCGTATTTGGA (site GCGAAGCCTCC) | 0.00526
31 | GCGAAGCCATGGACCGGTTTTCCCGGTAATCCGTATTTGGA (site GCGAAGCCTGC) | 0
32 | GCGAAGCCATGGACCGGTTTTCCCGGTAATCCGTATTTGGA (site GCGAAGCCTTC) | 0.24
33 | GCGAAGCCATGGACCGGTTTTCCCGGTAATCCGTATTTGGC (site GCGAAGCCTAC) | 0.0106
34 | GCGAAGCCATGGACCGGTTTTCCCGGTAATCCGTATTTGGC (site GCGAAGCCTCC) | 0
35 | GCGAAGCCATGGACCGGTTTTCCCGGTAATCCGTATTTGGC (site GCGAAGCCTGC) | 0
36 | GCGAAGCCATGGACCGGTTTTCCCGGTAATCCGTATTTGGC (site GCGAAGCCTTC) | 0.664
37 | GCGACACCATGGACCGGTTTTCCCGGTAATCCGTATTTGTC (site GCGACACCTGA) | 0
38 | GCGACATCATGGACCGGTTTTCCCGGTAATCCGTATTTGTG (site GCGACATCTCA) | 1.78
39 | GCGACCACATGGACCGGTTTTCCCGGTAATCCGTATTTGTT (site GCGACCACTAA) | 0.823
40 | GCGACGCCATGGACCGGTTTTCCCGGTAATCCGTATTTGTA (site GCAACGCCTTA) | 0.542
41 | GCGACGCCATGGACCGGTTTTCCCGGTAATCCGTATTTGTA (site GCCACGCCTTA) | 0.0222
42 | GCGACGCCATGGACCGGTTTTCCCGGTAATCCGTATTTGTA (site GCGACGCCTTA) | 0.398
43 | GCGACGCCATGGACCGGTTTTCCCGGTAATCCGTATTTGTA (site GCTACGCCTTA) | 0.019
44 | GCGACGGCATGGACCGGTTTTCCCGGTAATCCGTATTTGTC (site GCGACGGCTGA) | 1.84
45 | GCGAGCACATGGACCGGTTTTCCCGGTAATCCGTATTTGGC (site GCGAGCACTGC) | 3.27
46 | GCGAGCGCATGGACCGGTTTTCCCGGTAATCCGTATTTGTC (site GCGAGCGCTGA) | 2.69
47 | GCGAGGCCATGGACCGGTTTTCCCGGTAATCCGTATTTGGG (site GCGAAGCCTCC) | 0.0133
48 | GCGAGGCCATGGACCGGTTTTCCCGGTAATCCGTATTTGGG (site GCGACGCCTCC) | 0.022
49 | GCGAGGCCATGGACCGGTTTTCCCGGTAATCCGTATTTGGG (site GCGAGGCCTCC) | 0.0117
50 | GCGAGGCCATGGACCGGTTTTCCCGGTAATCCGTATTTGGG (site GCGATGCCTCC) | 0.0249

Row | Sequence | recombinant UMI read abundance (log10)
51 | GCGAGGGCATGGACCGGTTTTCCCGGTAATCCGTATTTGCC (site GCGAGGGCTGG) | 2.23
52 | GCGATAGCATGGACCGGTTTTCCCGGTAATCCGTATTTGTC (site GCGATAGCTGA) | 2.34
53 | GCGCCCACATGGACCGGTTTTCCCGGTAATCCGTATTTGGA (site GCGCCCACTTC) | 0.365
54 | GCGCGCACATGGACCGGTTTTCCCGGTAATCCGTATTTGCT (site GCGCGCACTAG) | 2.68
55 | GCGCTGACATGGACCGGTTTTCCCGGTAATCCGTATTTGAG (site GCGCTGACTCT) | 1.62
56 | GCGGAAACATGGACCGGTTTTCCCGGTAATCCGTATTTGCT (site GCGAAAACTAG) | 0
57 | GCGGAAACATGGACCGGTTTTCCCGGTAATCCGTATTTGCT (site GCGCAAACTAG) | 1.5
58 | GCGGAAACATGGACCGGTTTTCCCGGTAATCCGTATTTGCT (site GCGGAAACTAG) | 2.19
59 | GCGGAAACATGGACCGGTTTTCCCGGTAATCCGTATTTGCT (site GCGTAAACTAG) | 1.86
60 | GCGGAGGCATGGACCGGTTTTCCCGGTAATCCGTATTTGAA (site GCGGAGGCTTT) | 1.91
61 | GCGGTAACATGGACCGGTTTTCCCGGTAATCCGTATTTGAT (site GCGGTAACTAT) | 2.46
62 | GCGTAAACATGGACCGGTTTTCCCGGTAATCCGTATTTGCT (site GCGAAAACTAG) | 0
63 | GCGTAAACATGGACCGGTTTTCCCGGTAATCCGTATTTGCT (site GCGCAAACTAG) | 1.82
64 | GCGTAAACATGGACCGGTTTTCCCGGTAATCCGTATTTGCT (site GCGGAAACTAG) | 0.309
65 | GCGTAAACATGGACCGGTTTTCCCGGTAATCCGTATTTGCT (site GCGTAAACTAG) | 2.73
66 | GCGTACCCATGGACCGGTTTTCCCGGTAATCCGTATTTGAG (site GCGTACCCTCT) | 0.023
67 | GCGTACTCATGGACCGGTTTTCCCGGTAATCCGTATTTGAC (site GCGTACTCTGT) | 3.44
68 | GCGTCAACATGGACCGGTTTTCCCGGTAATCCGTATTTGGT (site GCGTCAACTAC) | 0.129
69 | GCGTTAGCATGGACCGGTTTTCCCGGTAATCCGTATTTGTG (site ACGTTAGCTCA) | 0.84
70 | GCGTTAGCATGGACCGGTTTTCCCGGTAATCCGTATTTGTG (site CCGTTAGCTCA) | 0.885
71 | GCGTTAGCATGGACCGGTTTTCCCGGTAATCCGTATTTGTG (site GCGTTAGCTCA) | 1.75
72 | GCGTTAGCATGGACCGGTTTTCCCGGTAATCCGTATTTGTG (site TCGTTAGCTCA) | 0.669
73 | GCGTTTCCATGGACCGGTTTTCCCGGTAATCCGTATTTGCT (site GCGTTTCCTAG) | 1.81
74 | GCTAAAGCATGGACCGGTTTTCCCGGTAATCCGTATTTGAT (site ACTAAAGCTAT) | 0.901
75 | GCTAAAGCATGGACCGGTTTTCCCGGTAATCCGTATTTGAT (site CCTAAAGCTAT) | 1.04
